The target of assay [1] is T1, Hemba 1003117 : Presenilin 2 (117L) (Homo sapiens, UniProt Q96JH8).
T1 construct: made in house; host or cells: E. coli (DH5α, BL21 or JM109)
The assay is described as follows: G assay with FDA approved drug (Example 7, TABLE 10B). To be noted: OD in absence of drug 1.2; drug concentration per TABLE 11; read after 30 minutes. The assay is classed as binding. How it is done:
(§1) For certain of the PDZ proteins and PL proteins shown to bind together and for which Kd values had been obtained, additional testing was conducted to determine whether certain pharmaceutical compounds would act to antagonize or agonize the interactions. Assays were conducted as for the G′ assay described supra both in the presence and absence of test compound, except that 50 ul of a 10 uM solution of the biotinylated PL peptide is allowed to react with the surface bearing the PDZ-domain polypeptide instead of a 20 uM solution as specified in step (2) of the assay.
(§2) In both tables, the first column (left to right) entitled “PDZ domain” lists the gene name of GST-PDZ domain fusion (see TABLE 9). Entries having two numbers separated by a slash indicate which PDZ domain was utilized. For example, in TABLE 10A, the entry for ZO-3 is 1/3. This means that PDZ domain 1 of 3 was used.
(§3) The second column labeled “PL” indicates the name of the PDZ ligand (see TABLES 10A and 10B) interacting with the PDZ domain. The third column entitled “Drug” lists the common or trade name of pharmaceutical compound tested and found to modulate the specific PDZ-PL interaction (suppliers and chemical information are listed in TABLE 11). The final column with the heading “Change in OD” indicates the change in absorbance at 450 nm of the assay in the absence (first number) or presence (second number) of chemical compound.
(§4) Many FDA approved drugs have unknown mechanism of function. It is quite possible that some of these drugs function by disrupting or increasing PDZ/PL interactions. This possibility was examined by using the ‘G Assay’ (Example 3 section D). FDA approved drugs were incubated in the presence of the labeled peptide and compared to the same interaction without drug to determine if there was an effect on specific PDZ:PL interactions (drugs added with peptide at step 9 in Example 3D). The primary focus of this experiment was on drugs involved in treatment of depression (amitriptyline, desipramine, trimipramine, benztropine, and nortryptilline) and epilepsy (valproic acid). No modes of action are known for these drugs.
(§5) Therapeutic dose was determined by guidelines given in the Physician's Desk Reference and in the assay, 200 times this amount was used. If a dosage range was given, the upper end of the range was used. Each interaction listed in TABLES 10A & B was tested in the ‘G Assay’ (see Example 3) against each of the drugs listed in TABLE 11. The concentration of GST-fusion protein and peptide used in the assay represent the Kd and were determined by titration. These values can be found in TABLE 7. The drugs were added to the peptide before addition to the well containing the PDZ protein. Otherwise, the assay was carried out as described and read at 450 nm after 30 minutes of developing. For the sequences of the PDZs and PLs used in these tests, see TABLES 8 & 9.
(§6) List of interactions and therapeutics for which a modulation of binding was observed. Concentrations at which the GST-PDZ fusion protein and labeled peptide were used can be found in Table 7 or Table 12.

Assay [2] deals with T2, PTPL-1 (4/5) : Presenilin 2 (117L) (Homo sapiens, UniProt Q12923, G1797A).
T2 construct: made in house; host or cells: E. coli (DH5α, BL21 or JM109)
T2 sequence (Q12923 1782-1879 G1797A): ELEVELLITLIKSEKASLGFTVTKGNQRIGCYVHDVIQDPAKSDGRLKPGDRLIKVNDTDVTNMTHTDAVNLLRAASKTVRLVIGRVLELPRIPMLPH
The assay is described as above. To be noted: OD in absence of drug 1.4; drug concentration per TABLE 11; read after 30 minutes. The class given is binding. How it is done: as §1, §2, §3, §4, §5, §6

Assay [3] concerns the target T3, Par 3 3/3 : Presenilin 2 (117L) (Homo sapiens, UniProt Q8TEW0).
T3 construct: made in house; host or cells: E. coli (DH5alpha, BL21 or JM109)
The assay is described as follows: G assay with FDA approved drug (Example 7, TABLES 10A, 10B). The class given is binding. To be noted: OD in absence of drug 0.6; drug concentration per TABLE 11; read after 30 minutes. How it is done:
as §1, §2, §3, §4
as §5, with “For the sequences of the PDZs and PLs used in these tests, see TABLES 8 & 9.” left out

Assay [4] deals with T4, Mupp-1 7/13 : Presenilin 2 (117L) (Homo sapiens, UniProt O75970).
T4 construct: Entries having two numbers separated by a slash indicate which PDZ domain was utilized; made in house; host or cells: E. coli (DH5alpha, BL21 or JM109)
T4 sequence (O75970 with tags, fused parts or gaps): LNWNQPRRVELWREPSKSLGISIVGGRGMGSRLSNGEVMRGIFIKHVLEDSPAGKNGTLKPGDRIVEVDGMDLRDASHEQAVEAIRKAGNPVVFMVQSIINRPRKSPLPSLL
The description is as above. Conditions: OD in absence of drug 0.5; drug concentration per TABLE 11; read after 30 minutes. The class given is binding. How it is done:
as §1, §2, §3, §4
as §5, with “For the sequences of the PDZs and PLs used in these tests, see TABLES 8 & 9.” left out

The next assay addresses T5, DVL2 : Presenilin (115L) (Homo sapiens, UniProt O14641).
T5 construct: made in house; host or cells: E. coli (DH5alpha, BL21 or JM109)
The assay is described as follows: G assay with FDA approved drug (Example 7, TABLE 10A). The assay is classed as binding. Conditions: OD in absence of drug 0.3; drug concentration per TABLE 11; read after 30 minutes. How it is done: as §1, §2, §3, §4, §5, §6

Another assay concerns the target T6, AF6 : Presenilin (115L) (Homo sapiens, UniProt P55196).
T6 construct: made in house; host or cells: E. coli (DH5alpha, BL21 or JM109)
The assay is described as above. The class given is binding. How it is done: as §1, §2, §3, §4, §5, §6

Assay [5] has as its target T7, ZO-3 1/3 : Presenilin (115L) (Homo sapiens, UniProt O95049).
T7 construct: the entry for ZO-3 is 1/3; This means that PDZ domain 1 of 3 was used; made in house; host or cells: E. coli (DH5alpha, BL21 or JM109)
Described as above. To be noted: OD in absence of drug 1.2; drug concentration per TABLE 11; read after 30 minutes. The assay is classed as binding. How it is done:
as §1, §2, §3, §4, §5, §6

Assay [6] relates to hSyntenin : Presenilin (115L). The description is as above. Conditions: OD in absence of drug 1.1; drug concentration per TABLE 11; read after 30 minutes. The class given is binding. How it is done: as §1, §2, §3, §4, §5, §6
In the next assay the target is T8, TIP-1 1/1 : LPAP (30L) (Homo sapiens, UniProt O14907).
T8 construct: made in house; host or cells: E. coli (DH5alpha, BL21 or JM109)
T8 sequence (O14907 14-116): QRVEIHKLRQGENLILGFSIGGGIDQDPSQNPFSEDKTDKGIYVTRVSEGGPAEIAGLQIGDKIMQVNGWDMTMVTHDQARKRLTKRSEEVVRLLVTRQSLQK
Described as above. The assay is classed as binding. To be noted: OD in absence of drug 1.1; drug concentration per TABLE 11; read after 30 minutes. How it is done:
as §1, §2, §3, §4, §5, §6

A further assay concerns the target T9, BAI-1 (2/6) : DNAM (22L) (Homo sapiens, UniProt Q96QZ7).
T9 construct: made in house; host or cells: E. coli (DH5α, BL21 or JM109)
As to the kind of experiment: G assay with FDA approved drug (Example 7, TABLE 10B). The assay is classed as binding. To be noted: OD in absence of drug 4; drug concentration per TABLE 11; read after 30 minutes. How it is done: as §1, §2, §3, §4, §5, §6

The target in another assay is T10, Atr-P (1/6) : DNAM (22L) (Homo sapiens, UniProt Q86UL8).
T10 construct: made in house; host or cells: E. coli (DH5α, BL21 or JM109)
T10 sequence (Q86UL8 408-511): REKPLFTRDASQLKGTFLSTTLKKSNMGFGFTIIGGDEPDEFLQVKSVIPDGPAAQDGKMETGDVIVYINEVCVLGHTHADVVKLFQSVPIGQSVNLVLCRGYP
Described as above. The assay is classed as binding. To be noted: OD in absence of drug 4; drug concentration per TABLE 11; read after 30 minutes. How it is done:
as §1, §2, §3, §4, §5, §6

The target of another assay is T11, ZO-2 (1/3) : DNAM (22L) (Homo sapiens, UniProt Q9UDY2).
T11 construct: made in house; host or cells: E. coli (DH5α, BL21 or JM109)
T11 sequence (Q9UDY2 27-122): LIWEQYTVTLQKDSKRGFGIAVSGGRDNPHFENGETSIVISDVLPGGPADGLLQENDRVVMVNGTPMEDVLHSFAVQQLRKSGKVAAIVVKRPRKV
The description is as above. The assay is classed as binding. How it is done:
as §1, §2, §3, §4, §5, §6

The target of assay [7] is T12, FLJ10324 : Presenilin 2 (117L) (Homo sapiens, UniProt Q96JH8).
T12 construct: made in house; host or cells: E. coli (DH5alpha, BL21 or JM109)
T12 sequence (Q96JH8 976-1061 limits assumed): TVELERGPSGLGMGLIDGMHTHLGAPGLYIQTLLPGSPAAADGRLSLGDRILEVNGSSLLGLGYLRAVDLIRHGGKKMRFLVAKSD
The assay is described as follows: G assay with FDA approved drug (Example 7, TABLE 10A). Conditions: OD in absence of drug 0.4; drug concentration per TABLE 11; read after 30 minutes. The assay is classed as binding. How it is done: as §1, §2, §3, §4, §5, §6

The target of another assay is T13, ZO-1 2/3 : NET (258L) (Homo sapiens, UniProt Q07157, DEL264-264).
T13 construct: made in house; host or cells: E. coli (DH5α, BL21 or JM109)
T13 sequence (Q07157 with tags, fused parts or gaps DEL264-264): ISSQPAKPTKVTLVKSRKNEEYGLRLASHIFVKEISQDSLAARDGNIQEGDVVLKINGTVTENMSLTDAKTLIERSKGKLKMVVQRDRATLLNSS
As to the kind of experiment: G assay with FDA approved drug (Example 7, TABLE 10B). The assay is classed as binding. To be noted: OD in absence of drug 0.8; drug concentration per TABLE 11; read after 30 minutes. How it is done:
as §1, §2, §3, §4, §5, §6

The subject of assay [8] is Antigen-specific mouse T cells, BR4.2. The assay is described as follows: T cell stimulation assay, MBPAc1-16 and antigen presenting cells, IFNγ ELISA (FIG. 1A). The assay is classed as cell-based. Conditions: 10 μM Tat-peptide; compared to Tat-peptide alone or no peptide. How it is done:
Antigen-specific T cell activation was measured by cytokine production. Fusion peptides containing tat and a T cell surface molecule carboxyl terminus inhibited γ-interferon (IFN) production by a T cell line in response to myelin basic protein (MBP) stimulation. […]
Cell Cultures Cells were maintained and tested in RPMI 1640 media supplemented with 10% fetal calf serum (HyClone), 2 mM glutamine, 10 mM Hepes, 100 U/ml penicillin, 100 μg/ml streptomycin, 0.1 mM non-essential amino acids, 1 mM sodium pyruvate, and 50 μM beta mercaptoethanol.
Supernatants were assayed for cytokine production following activation of T cell lines. […]
IFNγ was measured from cell supernatants, described above, at ambient temperature using the Endogen, Inc. ELISA protocol 3. […] The presence of IFNγ was detected with a biotin-labeled anti-mouse IFNγ monoclonal antibody (MM700B, Endogen, Inc.,). […] The absorbance at 450 nm was measured using a microtiter plate reader (Thermo Max, Molecular Devices) and the concentration of unknown IFNγ from cell supernatants was calculated from a standard curve generated by Softmax Pro software (Molecular Devices).
Background: An ELISA detects its analyte on a solid surface through an enzyme-linked reagent.

Where a name gives a salt, the structure may show the parent alone.

T6 sequence (P55196 1001-1093): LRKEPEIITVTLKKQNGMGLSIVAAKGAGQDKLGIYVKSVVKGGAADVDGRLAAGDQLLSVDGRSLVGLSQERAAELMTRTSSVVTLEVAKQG
T3 sequence (Q8TEW0 579-681): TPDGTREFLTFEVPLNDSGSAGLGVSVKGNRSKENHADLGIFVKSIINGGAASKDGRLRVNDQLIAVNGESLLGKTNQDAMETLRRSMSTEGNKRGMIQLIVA
T7 sequence (O95049 with tags, fused parts or gaps): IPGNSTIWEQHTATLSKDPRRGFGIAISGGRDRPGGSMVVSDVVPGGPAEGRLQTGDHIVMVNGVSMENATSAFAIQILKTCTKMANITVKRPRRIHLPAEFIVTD
T9 sequence (Q96QZ7 463-566): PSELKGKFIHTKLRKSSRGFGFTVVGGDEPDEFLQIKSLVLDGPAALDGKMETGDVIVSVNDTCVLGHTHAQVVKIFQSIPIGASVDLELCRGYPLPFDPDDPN
T1 sequence (Q96JH8 969-1068): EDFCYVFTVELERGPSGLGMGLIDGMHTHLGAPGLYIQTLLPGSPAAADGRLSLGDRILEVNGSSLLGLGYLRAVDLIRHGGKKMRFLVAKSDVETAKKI
T5 sequence (O14641 with tags, fused parts or gaps): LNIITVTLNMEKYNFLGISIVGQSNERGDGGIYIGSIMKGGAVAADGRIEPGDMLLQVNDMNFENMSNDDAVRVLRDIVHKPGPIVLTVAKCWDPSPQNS

With `CCCC(CCC)C(=O)O` [Valproic Acid, VALPROIC ACID], the entries for the “CHANGE IN OD: absorbance at 450 nm in presence of drug” value in assay [1] and in assay [2] were 1.2 to 0.8 and 1.4 to 1.1, respectively. Moreover, the “Change in OD: absorbance at 450 nm in presence of drug” value lay in the range of 0.6 to 0.2 in assay [3] and 0.5 to 0.2 in assay [4].

On to `CN(C)CCC=C1c2ccccc2CCc2ccccc21` [Amitriptyline, AMITRIPTYLINE HYDROCHLORIDE], for which the “Change in OD: absorbance at 450 nm in presence of drug” value at DVL2 : Presenilin (115L) is listed as 0.3 to 0.9; at AF6 : Presenilin (115L) (OD in absence of drug 0.4, drug concentration per TABLE 11, read after 30 minutes), 0.4 to 1.7; in [5] it was 1.2 to 3.6; in assay [6], 1.1 to 2.7. Also, the “agonist effect, binding relative to absence of drug” value on AF6 : Presenilin (115L) (AF6 and presenilin-1) amounted to 4.3 fold.

In the case of `CN1[C@@H]2CC[C@H]1C[C@@H](OC(c1ccccc1)c1ccccc1)C2` [Benztropine, BENZTROPINE MESYLATE], on TIP-1 1/1 : LPAP (30L), the “Change in OD: absorbance at 450 nm in presence of drug” value lay in the range of 1.1 to 1.6.

In the case of `CNCCCN1c2ccccc2CCc2ccccc21` [Desipramine, DESIPRAMINE HYDROCHLORIDE], the “CHANGE IN OD: absorbance at 450 nm in presence of drug” value is on record as 4 to 1.8 at BAI-1 (2/6) : DNAM (22L); 4 to 1.5 on Atr-P (1/6) : DNAM (22L); 2.1 to 0.5 at ZO-2 (1/3) : DNAM (22L) (OD in absence of drug 2.1, drug concentration per TABLE 11, read after 30 minutes). Further, the “antagonistic effect, binding relative to absence of drug” value on ZO-2 (1/3) : DNAM (22L) (ZO-2 domain 1 and DNAM-1) turned out to be 4.2 fold. Moreover, the “Change in OD: absorbance at 450 nm in presence of drug” value in [7] lay within 0.4 to 0.8; in [5] it was 1.2 to 3.3; in [6], 1.1 to 2.3; in assay [3] it was 0.6 to 2.1; in [4], 0.5 to 1.0.

Turning to `CN(C)CCCN1c2ccccc2CCc2ccccc21` [Imipramine, Imipramine HCI], at ZO-1 2/3 : NET (258L), the “CHANGE IN OD: absorbance at 450 nm in presence of drug” value was 0.8 to 0.4.

For the molecule “GYGRKKRRQRRRGPPSSSSGL [Tat-CD3 fusion peptide]”, the “T cell activation mediated by peptide:MHC (IFNγ production)” value in assay [8] was “inhibits T cell activation”.

Source of the values: patent US20050282743A1, “Molecular interactions in cells” (Arbor Vita Corporation, priority 2001, published 2005).
